How the values were obtained:
Experiment in all cases: relative viability (nuclei count vs DMSO), 5 days (fraction); higher = more cells survive
Bleomycin + Decitabine = compound: CC1=C(N=C(N=C1N)[C@H](CC(=O)N)NC[C@@H](C(=O)N)N)C(=O)N[C@@H]([C@H](C2=CN=CN2)OC3C(C(C(C(O3)CO)O)O)OC4C(C(C(C(O4)CO)O)OC(=O)N)O)C(=O)N[C@H](C)[C@H]([C@H](C)C(=O)N[C@@H]([C@@H](C)O)C(=O)NCCC5=NC(=CS5)C6=NC(=CS6)C(=O)NCCC[S+](C)C)O [Bleomycin] + Nc1ncn([C@H]2C[C@H](O)[C@@H](CO)O2)c(=O)n1 [Decitabine] (partner 2 µM); conditions: main component drawn
Summary of the method: (§1)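 Relative viability is defined as nuclei in treated wells over nuclei in vehicle wells. Duplicate plates were run and medians reported. Lung cancer cell lines in 1536-well plates were dosed by pin tool one day after seeding, with one drug or with a fixed anchor-drug dose plus five library-drug doses (not always all listed) in √10 steps, and nuclei were counted after 5 days.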

Bleomycin + Trametinib = compound: CC1=C(N=C(N=C1N)[C@H](CC(=O)N)NC[C@@H](C(=O)N)N)C(=O)N[C@@H]([C@H](C2=CN=CN2)OC3C(C(C(C(O3)CO)O)O)OC4C(C(C(C(O4)CO)O)OC(=O)N)O)C(=O)N[C@H](C)[C@H]([C@H](C)C(=O)N[C@@H]([C@@H](C)O)C(=O)NCCC5=NC(=CS5)C6=NC(=CS6)C(=O)NCCC[S+](C)C)O [Bleomycin] + CC(=O)Nc1cccc(-n2c(=O)n(C3CC3)c(=O)c3c(Nc4ccc(I)cc4F)n(C)c(=O)c(C)c32)c1 [Trametinib] (partner 0.02 µM); conditions: main component drawn
Summary of the method: as §1

Bleomycin + Phenformin = compound: CC1=C(N=C(N=C1N)[C@H](CC(=O)N)NC[C@@H](C(=O)N)N)C(=O)N[C@@H]([C@H](C2=CN=CN2)OC3C(C(C(C(O3)CO)O)O)OC4C(C(C(C(O4)CO)O)OC(=O)N)O)C(=O)N[C@H](C)[C@H]([C@H](C)C(=O)N[C@@H]([C@@H](C)O)C(=O)NCCC5=NC(=CS5)C6=NC(=CS6)C(=O)NCCC[S+](C)C)O [Bleomycin] + N=C(N)NC(=N)NCCc1ccccc1 [Phenformin] (partner 250 µM); conditions: main component drawn
Summary of the method: as §1

Etoposide + Navitoclax = compound: COc1cc([C@@H]2c3cc4c(cc3[C@@H](O[C@@H]3O[C@@H]5CO[C@@H](C)O[C@H]5[C@H](O)[C@H]3O)[C@H]3COC(=O)[C@H]23)OCO4)cc(OC)c1O [Etoposide] + CC1(C)CCC(c2ccc(Cl)cc2)=C(CN2CCN(c3ccc(C(=O)NS(=O)(=O)c4ccc(N[C@H](CCN5CCOCC5)CSc5ccccc5)c(S(=O)(=O)C(F)(F)F)c4)cc3)CC2)C1 [Navitoclax] (partner 0.5 µM)
Summary of the method: as §1

| Cell Line | relative viability (Bleomycin + Decitabine; first compound 0.01 µM) | relative viability (Bleomycin + Decitabine; first compound 0.03162 µM) | relative viability (Bleomycin + Decitabine; first compound 0.1 µM) | relative viability (Bleomycin + Decitabine; first compound 0.3162 µM) | relative viability (Bleomycin + Decitabine; first compound 1 µM) | relative viability (Bleomycin + Trametinib; first compound 0.01 µM) | relative viability (Bleomycin + Trametinib; first compound 0.03162 µM) | relative viability (Bleomycin + Trametinib; first compound 0.1 µM) | relative viability (Bleomycin + Trametinib; first compound 0.3162 µM) | relative viability (Bleomycin + Trametinib; first compound 1 µM) | relative viability (Bleomycin + Phenformin; first compound 0.01 µM) | relative viability (Bleomycin + Phenformin; first compound 0.03162 µM) | relative viability (Bleomycin + Phenformin; first compound 0.1 µM) | relative viability (Bleomycin + Phenformin; first compound 0.3162 µM) | relative viability (Bleomycin + Phenformin; first compound 1 µM) | relative viability (Etoposide + Navitoclax; first compound 0.01 µM) | relative viability (Etoposide + Navitoclax; first compound 0.03162 µM) | relative viability (Etoposide + Navitoclax; first compound 0.1 µM) | relative viability (Etoposide + Navitoclax; first compound 0.3162 µM) | relative viability (Etoposide + Navitoclax; first compound 1 µM) |
| --- | --- | --- | --- | --- | --- | --- | --- | --- | --- | --- | --- | --- | --- | --- | --- | --- | --- | --- | --- | --- |
| LK-2 | 0.22 | 0.241 | 0.184 | 0.121 | 0.142 | 0.474 | 0.389 | 0.449 | 0.263 | 0.254 | 0.289 | 0.281 | 0.304 | 0.23 | 0.16 | 0.815 | 0.945 | 0.643 | 0.498 | 0.267 |
| 201T | 0.839 | 0.816 | 0.677 | 0.735 | 0.561 | 0.697 | 0.731 | 0.673 | 0.598 | 0.555 | 0.447 | 0.436 | 0.47 | 0.361 | 0.364 | 1.25 | 1.23 | 1.13 | 1.14 | 1.02 |
| HCC-44 | 0.773 | 0.795 | 0.693 | 0.396 | 0.407 | 0.914 | 0.924 | 0.827 | 0.369 | 0.388 | 0.104 | 0.0979 | 0.075 | 0.0859 | 0.0579 | 0.845 | 1.05 | 1.1 | 0.882 | 0.496 |
| NCI-H647 | 0.289 | 0.183 | 0.152 | 0.0939 | 0.0806 | 0.35 | 0.217 | 0.158 | 0.114 | 0.111 | 0.209 | 0.207 | 0.148 | 0.078 | 0.0537 | 0.936 | 1.18 | 0.961 | 0.261 | 0.241 |
| H3255 | 0.582 | 0.631 | 0.586 | 0.414 | 0.342 | 0.575 | 0.506 | 0.629 | 0.485 | 0.357 | 0.35 | 0.372 | 0.367 | 0.301 | 0.301 | 0.538 | 0.556 | 0.334 | 0.348 | 0.14 |
| NCI-H2023 | 0.195 | 0.195 | 0.152 | 0.113 | 0.0909 | 0.277 | 0.383 | 0.363 | 0.148 | 0.129 | 0.34 | 0.326 | 0.312 | 0.157 | 0.101 | 0.99 | 0.964 | 0.929 | 0.423 | 0.347 |
| NCI-H2347 | 0.572 | 0.635 | 0.543 | 0.514 | 0.488 | 0.309 | 0.254 | 0.29 | 0.279 | 0.226 | 0.374 | 0.437 | 0.222 | 0.255 | 0.286 | 0.809 | 0.626 | 0.405 | 0.354 | 0.28 |
| NCI-H1944 | 0.365 | 0.321 | 0.275 | 0.252 | 0.159 | 0.319 | 0.255 | 0.276 | 0.234 | 0.165 | 0.145 | 0.144 | 0.141 | 0.116 | 0.102 | 1.11 | 1 | 0.63 | 0.593 | 0.3 |
| NCI-H1793 | 0.483 | 0.472 | 0.37 | 0.175 | 0.246 | 0.442 | 0.413 | 0.382 | 0.262 | 0.194 | 0.389 | 0.417 | 0.349 | 0.211 | 0.131 | 0.382 | 0.564 |  | 0.387 | 0.324 |
| NCI-H596 | 1 | 0.83 | 0.55 | 0.495 | 0.509 | 0.674 | 0.562 | 0.423 | 0.38 | 0.379 | 0.673 | 0.728 | 0.635 | 0.343 | 0.366 | 0.977 | 0.989 |  | 0.87 | 0.642 |
| NCI-H520 | 0.501 | 0.54 | 0.456 | 0.424 | 0.416 | 0.673 | 0.608 | 0.814 | 0.547 | 0.394 | 0.315 | 0.577 | 0.4 | 0.279 | 0.35 | 0.985 | 1 | 1.08 | 0.951 | 0.956 |
| EKVX | 0.311 | 0.323 | 0.279 | 0.215 | 0.215 | 0.396 | 0.298 | 0.301 | 0.196 | 0.158 | 0.234 | 0.255 | 0.196 | 0.2 | 0.157 | 0.892 | 0.983 | 0.759 | 0.446 | 0.251 |
| EPLC-272H | 0.358 | 0.343 | 0.301 | 0.171 | 0.129 | 0.302 | 0.256 | 0.207 | 0.193 | 0.184 | 0.247 | 0.286 | 0.228 | 0.173 | 0.116 | 1.22 | 1.25 | 0.71 | 0.962 | 0.436 |
| NCI-H1395 | 0.563 | 0.593 | 0.513 | 0.394 | 0.305 | 0.753 | 0.822 | 0.714 | 0.482 | 0.404 | 0.404 | 0.411 | 0.456 | 0.325 | 0.351 | 1.21 | 1.15 | 0.893 | 0.988 | 0.682 |

Source: the supplement of paper PMC10307832
